Measured values as given in US20250256007A1, “GELMA POLYMER COMPOSITIONS COMPRISING CELLS” (GelMEDIX, Inc., priority 2022, published 2025).
Where two headings read alike, the source gives them in different places.

Legend:
[1] = Young's Modulus of hydrogels with radical propagators; assay type: physicochemical; conditions: propagator at 10 uL/mL in G5(80) [5% GelMA, 80% DoM], gelled
Experimental: (§1) Each of the three propagators (NVC, NVP, EGDA) were combined with G5(80) [5% GelMA, 80% DoM] at 10 uL/mL propagator concentration, and then gelled. Average Young's Modulus (kPa) for resulting hydrogels were as follows: EGDA [7.2494 kPa]; NVP [6.4995 kPa]; NVC [3.4744 kPa]. NVP and EGDA were also tested for a minimum concentration in G5 (10) and G5(80) which would still allow for hydrogel formation (1 minute crosslinking at ˜0.43 W). Minimum propagator concentrations for hydrogel formation were as follows: G5 (10) [NVP—5 uL/mL; EGDA—1.5 uL/mL]; G5 (80) [NVP—0.3 uL/mL; EGDA—0.1 uL/mL]

[2] = Minimum propagator concentration for hydrogel formation; assay type: physicochemical; conditions: 1 minute crosslinking at ˜0.43 W
Experimental: as §1

RPE cells = assay: Cytotoxicity studies of propagators with RPE cells
Source text: Cytotoxicity studies were also completed with RPE cells for: NVC, NVP, EGDA, and phenylacetyl bromide (BAP), with 10% DMSO as a control.

C=CN1CCCCCC1=O [NVC, N-vinylcaprolactam]
Average Young's Modulus [1]: 3.4744 kPa

C=CC(=O)OCCOC(=O)C=C [EGDA, Ethylene Glycol Diacrylate]
Minimum propagator concentration for hydrogel formation ([2]; in G5 (10)): 1.5 uL/mL | Minimum propagator concentration for hydrogel formation ([2]; in G5 (80)): 0.1 uL/mL | Average Young's Modulus [1]: 7.2494 kPa | Cell viability (cytotoxicity) (RPE cells): low cell viability

C=CN1CCCC1=O [NVP, N-Vinylpyrrolidone]
Minimum propagator concentration for hydrogel formation ([2]; in G5 (10)): 5 uL/mL | Minimum propagator concentration for hydrogel formation ([2]; in G5 (80)): 0.3 uL/mL | Average Young's Modulus [1]: 6.4995 kPa | Cell viability (cytotoxicity) (RPE cells): higher average cell viability than NVC

O=C(Br)Cc1ccccc1 [BAP, phenylacetyl bromide]
Cell viability (cytotoxicity) (RPE cells; after 18 hours of cell incubation, RPE cells, FIG. 19): higher average cell viability than NVC
